Laboratory results published in US20250179057A1, “MEK IMMUNE ONCOLOGY INHIBITORS AND THERAPEUTIC USES THEREOF” (Immuneering Corporation, priority 2022, published 2025).
Where a name gives a salt, the structure may show the parent alone.

How the values were obtained:
CYP2C19 [1] = biological target: T1, CYP2C19 (Homo sapiens, UniProt P33261); assay: in vitro; conditions: microsomes, pH 7.4
CYP2B6 = biological target: T2, CYP2B6 (Homo sapiens, UniProt P20813); assay: in vitro; conditions: microsomes, pH 7.4
T2 sequence (P20813 1-491): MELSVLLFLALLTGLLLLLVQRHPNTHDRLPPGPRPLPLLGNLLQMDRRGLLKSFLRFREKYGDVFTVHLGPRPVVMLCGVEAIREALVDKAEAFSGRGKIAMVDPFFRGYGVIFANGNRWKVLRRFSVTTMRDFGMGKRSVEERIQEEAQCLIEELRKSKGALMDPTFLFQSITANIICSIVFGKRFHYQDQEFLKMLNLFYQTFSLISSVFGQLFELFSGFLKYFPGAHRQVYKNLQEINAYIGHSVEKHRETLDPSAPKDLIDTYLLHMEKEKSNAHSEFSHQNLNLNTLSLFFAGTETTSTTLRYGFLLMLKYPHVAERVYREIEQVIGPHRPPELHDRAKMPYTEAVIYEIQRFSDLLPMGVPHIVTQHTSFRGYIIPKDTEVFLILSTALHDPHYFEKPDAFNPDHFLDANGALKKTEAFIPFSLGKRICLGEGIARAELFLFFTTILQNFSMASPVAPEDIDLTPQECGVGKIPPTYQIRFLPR

hERG = hERG (Homo sapiens, UniProt Q12809); assay: cell-based
Experimental: Materials and Methods: CHO cells (transformed with adenovirus 5 DNA; Stably transfected with full length hERG cDNA) were cultured in Ham's F-12 supplemented with 10% fetal bovine serum, 100 U/mL penicillin G sodium, 100 μg/mL streptomycin sulfate and 400 μg/mL Zeocin. Before testing, cells in culture dishes were rinsed with Hank's Balanced Salt Solution, detached with accutase.
HEPES-buffered intracellular solution (Charles River proprietary) for whole cell recordings was loaded into the intracellular compartment of the SP384PE. Extracellular buffer (HB-PS) and Cell suspension (in HB-PS) were pipetted into the extracellular compartment of the SP384PE chip. After establishment of a whole-cell configuration, membrane currents were recorded using patch clamp amplifier in the SP384PE system.
Test article (TA) concentrations (eight (8) concentrations of each test article were evaluated) were applied to naïve cells (n=4, where n=replicates/concentration). Each application consisted of addition of 40 μL of 2× concentrated test article solution to the total 80 μL of final volume of the extracellular well of the SP384PE chip. Duration of exposure to each compound concentration was five (5) minutes.
hERG current was measured using stimulus voltage patterns with fixed amplitudes: activation pre-pulse (TP1) to +40 mV for 2 s and test pulse (TP2) to −40 mV for 2 s from a holding potential of −80 mV. hERG current was measured as the outward peak current at TP2 (tail current). The stimulation was repeated with 0.1 Hz frequency during 2 min as baseline and 5 min after TA application.
Data acquisition and analyses were performed using the SP384PE system operation software. The decrease in current amplitude after TA application was used to calculate the percent block relative to control.
Tonic Block effect was calculated as:
[formula] • where ITP2, baseline and ITP2, TA were the outward peak K^+ currents elicited by the TP2 before application and 5 min after application of a test article, respectively.
The data were corrected for run-down:
[formula] • where % VC and % PC were the mean values of the current block with the vehicle and positive controls, respectively.
Concentration-response data were fitted to an equation of the following form:
[formula] • where [Test] was the concentration of test article, IC50 was the concentration of the test article producing half-maximal block, N was the Hill coefficient, % VC was the mean current block at the vehicle control and % Block was the percentage of ion channel current inhibited at each concentration of a test article. Nonlinear least squares fits were solved with the XLfit add-in for Excel (Microsoft, Redmond, WA).
In this study, hERG Ion channel block of IC50 values were determined. […] In brief, CHO cells were cultured in Ham's F-12 supplemented with 10% fetal bovine serum, 100 U/mL penicillin G sodium, 100 μg/mL streptomycin sulfate and 400 μg/mL Zeocin. Before testing, cells in culture dishes were rinsed with Hank's Balanced Salt Solution, detached with accutase. […] Test article (TA) concentrations were applied to naïve cells (n=4, where n=replicates/concentration). Each application consisted of addition of 40 μL of 2× concentrated test article solution to the total 80 μL of final volume of the extracellular well of the SP384PE chip. Duration of exposure to each compound concentration was five (5) minutes. hERG current was measured using stimulus voltage patterns with fixed amplitudes: activation pre-pulse (TP1) to +40 mV for 2 s and test pulse (TP2) to −40 mV for 2 s from a holding potential of −80 mV. hERG current was measured as the outward peak current at TP2 (tail current). The stimulation was repeated with 0.1 Hz frequency during 2 min as baseline and 5 min after TA application. Data acquisition and analyses were performed using the SP384PE system operation software.

[2] = tested on: phospho-ERK in A375 cells; assay: Cell-based pERK (pERK:tERK) in A375 cells; conditions: for pERK/tERK ratio normalized to DMSO: A375 (BRAF p.V600E), 100 nM
Experimental: Materials and Methods: A549 or A375 cells were seeded in 6-well plates at an appropriate seeding density on day 0. On day 2 or 3, after checking the health and confluency of cells, the media was aspirated and replaced with 1 mL media containing a predetermined concentration of compound and incubated for 2 hours. After 2 hours, the media was aspirated, and the cells washed 2 times with cold PBS. Cells were lysed on ice, with 50 uL 1×CST lysis buffer +1 mM PMSF for 5 minutes. After 5 minutes, cells were removed using a scraper and transferred to cold 1.5 mL tubes, and centrifuged for 10 min, 4° C., 14,000×g. Supernatant was gently removed and snap frozen in liquid nitrogen. Protein concentration of the lysate was determined using Bradford Reagent (analyzed using SpectraMax M2E) and diluted to 1 mg/mL or pERK or 1.5 mg/mL for pMEK analysis. […] All dilutions were in Milk-free antibody diluent.
A549 or […] cells were treated in duplicate for two hours with compounds at varying concentrations. After two hours, the cells were lysed, snap frozen, and stored at −80° C. After storage, the lysate was quantified with the Bradford assay. Before the lysates were prepared to run on the Jess, the lysates were diluted to 1 mg/mL for pERK analysis and 1.5 mg/mL pMEK analysis using quantitative Western blotting. ERK and MEK phosphorylation levels were estimated by taking the ratio of phospho-protein to total protein and normalizing to the DMSO control.
The nine models are described in Table 16.

CYP2C19 [3] = biological target: T1, CYP2C19; assay: CYP450 panel inhibition in human liver microsomes, 2C19 (mephenytoin); conditions: 10 μM, substrate mephenytoin
[4] = Human liver microsome stability (t1/2, Clint)
[5] = human, liver microsomes, pH 7.4
[6] = read-out: IC50 (μM), hERG ion channel block, Example 46, 5 min exposure per concentration
[7] = 1 μM, 0.5 mg/ml microsomal protein

T1 sequence (P33261 whole entry): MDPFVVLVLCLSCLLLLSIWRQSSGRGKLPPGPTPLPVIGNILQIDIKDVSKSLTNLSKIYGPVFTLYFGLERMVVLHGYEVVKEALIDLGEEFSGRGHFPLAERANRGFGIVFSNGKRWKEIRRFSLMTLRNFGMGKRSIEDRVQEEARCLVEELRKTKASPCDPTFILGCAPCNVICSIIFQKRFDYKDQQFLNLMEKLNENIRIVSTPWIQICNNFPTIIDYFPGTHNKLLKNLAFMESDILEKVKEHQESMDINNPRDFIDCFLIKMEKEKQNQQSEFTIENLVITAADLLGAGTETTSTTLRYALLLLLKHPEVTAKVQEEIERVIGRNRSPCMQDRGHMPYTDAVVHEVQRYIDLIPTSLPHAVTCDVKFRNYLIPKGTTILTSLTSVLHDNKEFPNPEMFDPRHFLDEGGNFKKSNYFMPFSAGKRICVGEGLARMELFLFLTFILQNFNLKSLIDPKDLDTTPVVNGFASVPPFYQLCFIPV
Chain of hERG (Q12809 whole entry): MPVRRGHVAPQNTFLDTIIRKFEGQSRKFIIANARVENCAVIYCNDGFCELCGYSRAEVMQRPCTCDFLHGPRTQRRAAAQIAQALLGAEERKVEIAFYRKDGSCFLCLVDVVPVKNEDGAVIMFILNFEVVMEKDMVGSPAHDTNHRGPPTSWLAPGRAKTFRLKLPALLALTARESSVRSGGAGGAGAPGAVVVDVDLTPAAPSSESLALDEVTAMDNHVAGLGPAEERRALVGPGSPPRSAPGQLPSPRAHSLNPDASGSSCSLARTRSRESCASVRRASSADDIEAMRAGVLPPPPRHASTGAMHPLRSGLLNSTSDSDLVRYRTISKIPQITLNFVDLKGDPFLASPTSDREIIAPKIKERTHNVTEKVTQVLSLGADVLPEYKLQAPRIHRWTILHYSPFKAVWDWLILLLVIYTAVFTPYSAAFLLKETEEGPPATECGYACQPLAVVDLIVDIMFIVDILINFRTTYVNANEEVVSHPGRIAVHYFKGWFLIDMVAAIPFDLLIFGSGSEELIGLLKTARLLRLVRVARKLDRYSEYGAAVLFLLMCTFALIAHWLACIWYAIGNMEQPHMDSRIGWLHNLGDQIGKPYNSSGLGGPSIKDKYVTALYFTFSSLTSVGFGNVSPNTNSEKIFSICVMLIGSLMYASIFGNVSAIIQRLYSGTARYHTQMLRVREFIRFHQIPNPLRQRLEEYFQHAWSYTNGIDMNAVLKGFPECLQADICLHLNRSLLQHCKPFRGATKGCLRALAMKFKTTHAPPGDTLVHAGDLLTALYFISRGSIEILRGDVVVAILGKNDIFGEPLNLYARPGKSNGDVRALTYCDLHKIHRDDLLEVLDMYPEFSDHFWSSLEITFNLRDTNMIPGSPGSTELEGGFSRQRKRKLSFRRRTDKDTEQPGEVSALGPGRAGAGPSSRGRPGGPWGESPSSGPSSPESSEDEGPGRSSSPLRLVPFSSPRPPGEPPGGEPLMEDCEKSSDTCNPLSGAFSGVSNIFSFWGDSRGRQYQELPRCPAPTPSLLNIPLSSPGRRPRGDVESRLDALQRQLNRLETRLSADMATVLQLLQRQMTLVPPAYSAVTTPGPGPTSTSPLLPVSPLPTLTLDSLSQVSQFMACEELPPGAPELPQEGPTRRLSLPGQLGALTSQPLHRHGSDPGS

Row | SMILES | inhibition at 30 min, 10 µM (CYP2C19 [1]) [%] | inhibition at 30 min, 10 µM (CYP2B6) [%] | IC50 (hERG) [µM] | CYP-2C19 (Mephenytoin) mean percentage CYP inhibition (CYP2C19 [3]) [%] | other results
1 | CCN(C)Cc1c(Cc2cccc(NS(=O)(=O)NC)c2Cl)c(=O)oc2cc(OC(=O)N(C)C)ccc12 [Compound 245, 3-(2-chloro-3-((N-methylsulfamoyl)amino)benzyl)-4-((ethyl(methyl)amino)methyl)-2-oxo-2H-chromen-7-yl dimethylcarbamate] | 29 | 6 | 16.1 | – | –
2 | CNS(=O)(=O)Nc1cccc(Cc2c(CN(C)C)c3ccc(OC(=O)N(C)C)cc3oc2=O)c1Cl [Compound 274, 3-(2-chloro-3-((N-methylsulfamoyl)amino)benzyl)-4-((dimethylamino)methyl)-2-oxo-2H-chromen-7-yl dimethylcarbamate] | 15.1 | -0.6 | > 30 | – | pERK/tERK ratio normalized to DMSO [2]: 0.477
3 | CNS(=O)(=O)Nc1cccc(Cc2c(CN3CCNCC3)c3ccc(OC(=O)N(C)C)cc3oc2=O)c1Cl [Compound 246, 3-(2-chloro-3-((N-methylsulfamoyl)amino)benzyl)-2-oxo-4-(piperazin-1-ylmethyl)-2H-chromen-7-yl dimethylcarbamate hydrochloride] | 22 | 29.7 | > 30 | – | –
4 | CNS(=O)(=O)Nc1cccc(Cc2c(CN(C)C)c3cc(F)c(OC(=O)N(C)C)cc3oc2=O)c1F [Compound 25] | – | – | – | 26.5 | –
5 | CCN(C)Cc1c(Cc2cccc(NS(=O)(=O)NC)c2F)c(=O)oc2cc(OC(=O)N(C)C)c(F)cc12 [Compound 238] | – | – | 19.4 | – | –
6 | Cn1cnc2c(F)c(Nc3ccc(Br)cc3Cl)c(C(=O)NOCCO)cc21 [Reference-1, Selumetinib] | – | – | – | – | A375 pERK:tERK ratio [10 nM; 2 hr] [2]: 0.59; pERK/tERK ratio normalized to DMSO [2]: 0.199; half-life at 1 μM [4, 5]: > 1.5 h; IC50 at 5 min (hERG; human): > 30 µM
7 | CNS(=O)(=O)Nc1cccc(Cc2c(CN3CCNCC3)c3cc(Cl)c(OC(=O)N(C)C)cc3oc2=O)c1Cl [Compound 256, 6-chloro-3-(2-chloro-3-((N-methylsulfamoyl)amino)benzyl)-2-oxo-4-(piperazin-1-ylmethyl)-2H-chromen-7-yl dimethylcarbamate hydrochloride] | 40.8 | 1.9 | 21.6 | – | –
8 | CNS(=O)(=O)Nc1nccc(Cc2c(CN(C)C)c3ccc(OC(=O)N(C)C)cc3oc2=O)c1F [Compound 124] | – | – | – | 50.6 | IC50 (hERG; [6]): 4.2 µM
9 | CCS(=O)(=O)Nc1cccc(Cc2c(CN3CCNCC3)c3cc(Cl)c(OC(=O)N(C)C)cc3oc2=O)c1Cl [Compound 257, 6-chloro-3-(2-chloro-3-(ethylsulfonamido)benzyl)-2-oxo-4-(piperazin-1-ylmethyl)-2H-chromen-7-yl dimethylcarbamate hydrochloride] | 47.5 | 13.7 | 8.4 | – | –
10 | CCCS(=O)(=O)Nc1cccc(Cc2c(CN3CCNCC3)c3cc(Cl)c(OC(=O)N(C)C)cc3oc2=O)c1F [Compound 167] | – | – | – | 67.1 | IC50 (hERG; [6]): 1.5 µM
11 | CNS(=O)(=O)Nc1cccc(Cc2c(CN(C)C)c3ccc(OC(=O)N(C)C)cc3oc2=O)c1F [Compound 9] | – | – | – | 17.4 | A375 pERK:tERK ratio [10 nM; 2 hr] [2]: 0.71; Human Clint [4, 7]: 40 µL/min/mg; Human Microsome (t1/2 min) [4, 7]: 0.583 h; IC50 (hERG; [6]): 22.4 µM
12 | CNS(=O)(=O)Nc1nccc(Cc2c(C)c3ccc(Oc4ncccn4)cc3oc2=O)c1F [Reference-2, reference compound] | – | – | – | – | microsomal CLint at 1 μM [4, 5]: < 15 µL/min/mg
13 | CCS(=O)(=O)Nc1cccc(Cc2c(CN(C)C)c3ccc(OC(=O)N(C)C)cc3oc2=O)c1F [Compound 120] | – | – | – | 14.2 | –
14 | CNS(=O)(=O)Nc1cccc(Cc2c(CN3CCNCC3)c3cc(F)c(OC(=O)N(C)C)cc3oc2=O)c1F [Compound 134] | – | – | – | 20.6 | –
